Patent US8735444B2, “Fluorinated rhodamines as photostable fluorescent dyes for labelling and imaging techniques” (Max-Planck-Gesellschaft zur Foerderung der Wissenschaften …, priority 2009, dated 2014)
Where two headings read alike, the source gives them in different places. Marks after values point to notes of the source that are not given here.

Key:
[1] = tested on: living mammalian cells (PtK2); assay: Membrane-permeation experiments in living cells, epifluorescence microscope; format: cell-based; conditions: for Structures stained in living cells: 15 minutes
Method: FIG. 9. Membrane-permeation experiments of the presented dyes. Living mammalian cells (PtK2) were incubated for 15 minutes with a 50 μg dye/ml solution. The subcellular localization of the dye was imaged in an epifluorescence microscope. A: 46-H—CH2 CF3—H—H (16); B: 42-COOH (15); C: 23; D: 37-Me-Me-H (27); E: 42-H (14)-methylester; F: 33-H—H (18).
The most important prerequisite for fluorophores used in these labeling strategies is that sufficient amounts of it need to pass cellular membrane(s) to reach the target protein. In order to asses the permeability of the cell membrane to the fluorescent dyes described in the presented invention, living mammalian cells (PtK2) previously grown overnight on cover slips, were first subjected to either 500 μg dye/ml or 50 μg dye/ml in growth medium for 15 minutes. (The amount of dye used for labeling of SNAP-fusion proteins is below 5 μg dye/ml.) Then, the cells were washed with growth medium (without dye) for 15 minutes, and imaged using an epifluorescence microscope.

[2] = Spectral properties of the fluorinated rhodamines (absorption, emission, quantum yield, lifetime); format: physicochemical
Description: Extinction coefficients (of the long wavelength maximum) which are lower than ca. 8×10^4 M^−1 cm^−1 indicate the presence of the closed non-fluorescent form.

[3] = design: ε × 10^−4: unit not given beside the values; conditions: cited from earlier work
[4] = a + b (aqueous buffer at pH 7 + methanol)
[5] = adding methanol to an aqueous buffer
[6] = value for the closed form, methanol

Row | ABSORPTION λMAX ([2]; aqueous buffer at pH 7) | EMISSION λMAX ([2]; aqueous buffer at pH 7) | ΦFL ([2]; aqueous buffer at pH 7) | τFL ([2]; aqueous buffer at pH 7) [ns] | ABSORPTION ε ([2]; methanol) [M⁻¹ cm⁻¹] | ABSORPTION λMAX ([2]; methanol) | EMISSION λMAX ([2]; methanol) [nm] | ABSORPTION ε ([2]; aqueous buffer at pH 7) [M⁻¹ cm⁻¹] | Compound | Structures stained in living cells ([1]; 50 μg dye/ml) | Structures stained in living cells ([1]; 500 μg dye/ml) | also measured
1 | 509 nm | 533 nm | 0.86 | 3.3 | 42000 | 517 nm | 541 | – | 5′,(6′)-Carboxy-2,7-difluoro-N,N″-bis(2,2,2-trifluoroethyl)-4,5-disulforhodamine [Compound 21] | Dim cytoplasmatic stain with dots | Cytoplasmatic and mitochondrial | –
2 | 525 nm | 554 nm | – | – | – | – | 589 | 31000 | 2,7-Difluoro-5′(6′)-methoxycarbonyl-N,N,N′,N′-tetramethyl-rhodamine [Compound 28] | – | Red cytoplasmatic and mitochondrial | ABSORPTION λMAX [2, 4]: 558 nm; bathochromic shift in absorption maximum [2, 5]: 23 nm; bathochromic shift in emission maximum [2, 5]: 35 nm
3 | – | – | – | – | – | – | – | – | Nc1cc2c(cc1Cl)C1(OC(=O)c3ccccc31)c1cc(Cl)c(N)cc1O2 [Compound 5] | – | – | shift of the absorption and emission curves to the red ([3]; compared with compounds 1, 3 and 4): ca. 10 nm; ε × 10^−4 ([3]; water, pH = 7): 7.1; λem ([3]; water, pH = 7): 525 nm; λmax ([3]; water, pH = 7): 502 nm
4 | 490 nm | 514 nm | 0.97 | 4.1 | 32000 | 502 nm | 517 | – | 5′ (6′)-Carboxy-2,7-difluoro-4,5-disulforhodamine [Compound 13] | Dim cytoplasmatic stain with dots | Nearly no stain visible. | –
5 | – | – | – | – | – | – | – | – | O=C1OC2(c3cc(F)c(O)cc3Oc3cc(O)c(F)cc32)c2ccccc21 [Compound 8] | – | – | τ ([3]; 20° C.): ^7*τ = 4.1 ns (20° C.).; ε × 10^−4 ([3]; H2O, pH = 9): 8.5^4*; λem ([3]; H2O, pH = 9): 518^4* nm; λmax ([3]; H2O, pH = 9): 492^4* nm
6 | 496 nm | 522 nm | 0.89 | 3.8 | – | 498 nm | 520 | 53000 | 5′ (6′)-carboxy-2,7-difluoro-N,N′-bis(2,2,2-trifluoroethyl)-rhodamine [Compound 19] | Dim cellular stain with dots | – | –
7 | 494 nm | 521 nm | 1.00 | 3.8 | 41000 | 500 nm | 519 | – | O=C1OC2(c3cc(F)c(NCC(F)(F)F)cc3Oc3cc(NCC(F)(F)F)c(F)cc32)c2ccccc21 [Compound 18, 2,7-Difluoro-N,N′-bis(2,2,2-trifluoroethyl)rhodamine] | Dim cytoplasmatic stain with bright | – | ABSORPTION λMAX [2, 6]: (292)^2b nm
8 | 499^a nm | 522^ nm | 0.88 | 3.9 | – | – | – | 81000 | N,N-Bis(2,2,2-trifluoroethyl)rhodamine [Compound 14] | – | Nearly no stain visible. | –
9 | 515^a, 515^b nm | 543 nm | 0.86 | 4.1 | 56000 | 515^a, 515^b nm | 538 | – | 5′(6′)-Carboxy-2,7-difluoro-N,N′-dimethylrhodamine [Compound 24] | – | Cellular stain visible; bright | –
10 | 501 nm | 523 nm | 0.93 | – | – | 497 nm | 522 | 88000 | O=C(O)c1ccc2c(c1)C1(OC2=O)c2ccc(NCC(F)(F)F)cc2Oc2cc(NCC(F)(F)F)ccc21 [15 (43-COOH), 6′-carboxy-N,N′-bis(2,2,2-trifluoroethyl)rhodamine] | – | – | Structures stained in living cells ([1]; 500 μg dye/ml, listed as 43-COOH (15)): Nearly no stain visible.
11 | 513 nm | 539 nm | 0.87 | 4.0 | 56000 | 511 nm | 537 | – | CNc1cc2c(cc1F)C1(OC(=O)c3ccccc31)c1cc(F)c(NC)cc1O2 [Compound 23, 2,7-Difluoro-N,N′-dimethylrhodamine] | Dim cytoplasmatic stain with dots | Mitochondrial stain visible. Bright | –
12 | – | – | – | – | – | – | – | – | CN(CC(F)(F)F)c1cc2c(cc1F)C1(OC(=O)c3ccccc31)c1cc(F)c(N(C)CC(F)(F)F)cc1O2 [Compound 25, 2,7-Difluoro-N,N-dimethyl-N,N-bis(2,2,2-trifluoromethyl)-rhodamine] | – | Only dim stain visible. | fluorescence efficiency of the open acidic form ([2]; acidic solutions): relatively low fluorescence efficiency; ΦFL ([2]; measured at pH 1): (0.20)^1; τFL ([2]; measured at pH 1): (1.2)^1 ns; ABSORPTION ε ([2]; measured at pH 1, aqueous): (3.2)^1a (M^−1 cm^−1) × 10^−4; ABSORPTION λMAX ([2]; measured at pH 1, aqueous): 528 nm; EMISSION λMAX ([2]; measured at pH 1, aqueous): (557)^1a nm; colour of solutions ([2]; methanol, water and neutral buffers): colorless solutions; ABSORPTION λMAX [2, 6]: 300 nm
13 | – | – | – | – | – | – | – | – | 5′ (6′)-Carboxy-2,7-difluoro-N,N′-dimethyl-N,N-bis(2,2,2-trifluoroethyl)rhodamine [Compound 26] | – | Cellular stain visible; bright | ABSORPTION λMAX [2, 4]: 523 nm; ABSORPTION λMAX [2, 6]: 291 nm
14 | 501 nm | 525 nm | 0.95 | 4.1 | – | 500 nm | 524 | 85000 | O=C(O)c1ccc2c(c1)C1(OC2=O)c2ccc(NCC(F)(F)F)cc2Oc2cc(NCC(F)(F)F)ccc21 [15 (42-COOH), 5′-Carboxy-N,N′-bis(2,2,2-trifluoroethyl)rhodamine] | Dim cytoplasmatic stain with dots | – | Structures stained in living cells ([1]; 500 μg dye/ml, listed as 42-COOH (15)): Bright cytoplasmatic stain visible.
15 | 496 nm | 522 nm | 0.92 | 4.0 | 50000 | 498 nm | 523 | – | 5′(6′)-Carboxy-2,7-difluororhodamine [Compound 11] | – | Dye exclusion! No dye within cell | –
16 | 494 nm | 520 nm | 0.87 | 3.9 | 41000 | 498 nm | 522 | – | Nc1cc2c(cc1F)C1(OC(=O)c3ccccc31)c1cc(F)c(N)cc1O2 [Compound 10, 2,7-Difluororhodamine] | – | High background staining visible. | –

Row | Compound | ABSORPTION λMAX ([2]; aqueous buffer at pH 7) | EMISSION λMAX ([2]; aqueous buffer at pH 7) | ΦFL ([2]; aqueous buffer at pH 7) | τFL ([2]; aqueous buffer at pH 7) [ns] | ABSORPTION ε ([2]; methanol) [M⁻¹ cm⁻¹] | ABSORPTION λMAX ([2]; methanol) | EMISSION λMAX ([2]; methanol) [nm] | ABSORPTION ε ([2]; aqueous buffer at pH 7) [M⁻¹ cm⁻¹] | Structures stained in living cells ([1]; 50 μg dye/ml) | Structures stained in living cells ([1]; 500 μg dye/ml) | also measured
17 | CN(C)c1cc2c(cc1F)C1(OC(=O)c3ccccc31)c1cc(F)c(N(C)C)cc1O2 [Compound 27, 2,7-Difluoro-N,N,N′,N′-tetramethylrhodamine] | 554 nm | 586 nm | 0.02 | 3.3 | – | 546 nm | 576 | 50000 | – | Red cytoplasmatic and mitochondrial | fluorescence signal inside the living cells ([1]; compared with aqueous buffer, Example 12, FIG. 9D): considerably stronger; fluorescence in aqueous buffer ([2]; aqueous buffer): nearly non-fluorescent
